Source: patent US20080057010A1, “METHOD FOR SKIN CARE” (NULIV SCIENCE LTD., priority 2006, published 2008)

Assays:
collagen I = test: Collagen I expression in human HaCaT cells (western blot); type: cell-based; conditions: relative to 0 μM = 1.00
Method: The Spontaneously transformed human keratinocyte cell lines HaCaT cells were grown at 37° C. in a humidified incubator under 5% CO2 and 95% air in culture medium such as Dulbecco Modified Eagle Medium (DMEM) supplemented with 10% Fetal Bovine Serum (FBS), 100 IU/mL penicillin, 100 μg/mL of streptomycin, 2 mM sodium pyruvate and 1% Non-Essential Amino Acids (NEAA). The culture medium was replaced every other day. After confluence, the cells were subcultured following trypsinization. For subcultures cells were harvested after brief treatment with 0.1% trypsin/ethylenediaminetetraacetic acid (EDTA) solution and seeded at a dilution of 1:10. Cells between passages 12 and 45 were used for studies. The cells were seeded and incubated for 24 h before treated with the astragalosides for 24 h. Control cultures were maintained in medium supplemented with vehicle (dimethyl sulfoxide (DMSO) 0.1%). No growth and differentiation effects of DMSO were observed under these culture conditions.
The cells were treated with pure compounds such as astragaloside I (AS 1), astragaloside II (AS2), astragaloside III (AS3), astragaloside IV (AS4), astragaloside VI (AS6), isoastragaloside I (isoAS1), isoastragaloside II (isoAS2), and cycloastragenol 6-O-β-D-glucopyranose (AA) at concentrations of 0-10 μM. Alternatively, the cells were also treated with the crude extracts, such as butanol fraction and water insoluble fraction of Astragalus membranaceus at concentrations of 0, 1, 10, and 40 μg/mL. The cells were treated with the indicated compounds or the extracts for 24 h before harvested for analysis of collagen I and III expressed in the whole cell extract or secreted into the culture medium.
Western blot analysis was carried out on both of cultured medium and cell lysates. The cells were plated on 6-cm dishes at a density of 1×10^6 cells/dish for 24 h prior to treatment with indicated concentrations of astragalus triterpenoids as indicated for another 48 h. The conditioned culture mediums were then centrifuged, 2-fold concentrated and collected for assay of collagens and MMPs secreted into the culture medium. The cells were washed and lysed in 0.2 mL of lysis buffer (1% NP-40, 50 mM Tris-HCl, pH 7.4, 180 mM NaCl, 1 mM EDTA, 1 mM PMSF, 1 mM NaF, 10 mM Na3VO4) for 30 min at 4° C. After centrifuging at 17500 g for 15 min, the supernatants of cell lysate were also collected. Protein concentration of the samples were measured using the bicinchoninic acid (BCA) protein assay kit according to the manufacturer's protocol (Pierce, Rockford, Ill., USA). Equal amount of protein samples of concentrated conditioned medium (100 μg) or cell lysate supernatants (50 μg) were mixed with an appropriate volume of 4×SDS sampling buffer and separated by 8% SDS-PAGE gel. The protein bands separated in the SDS-PAGE gel were blotted onto a polyvinylidene fluoride (PVDF) membrane. The blotted PVDF membrane was washed twice and blocked in freshly prepared Tris-buffered saline (TBS) containing 0.1% Tween-20 and 7% skim milk (TBST) for 2 h at room temperature. The PVDF membrane was then incubated with either antibodies against collagen I and III or the housekeeping protein α-tubulin (Santa Cruz Biotechnology, Santa Cruz, Calif.) for 18 h at 4° C. Horseradish peroxidase-conjugated anti-goat antibody was used as secondary antibody. Signals were visualized by an enhanced chemiluminescence kit (Clonetech, Palo Alto, Calif., USA) followed by exposure to X-ray films.
Results shown represent the quantitated data from western blot analysis. […] The collagen I was also over-expressed in the human HaCaT cells treated with 40 μg/mL of astragaloside extract.

MMP-2 = test: Zymography of MMP-2 in HaCaT cells; type: cell-based, human; conditions: relative to 0 = 1.00
Method: The proteolytic activities of MMPs from HaCaT and HDF cells were measured essentially as described elsewhere (Circ Res, 1999; 85:906-911). The cells were seeded for 24 h and then treated with various concentrations of astragalosides for another 48 h. The conditioned culture medium was then centrifuged, 2-fold concentrated, and saved for assay of collagens and MMPs expressed into the culture medium. The cells were then lysed in lysis buffer (1% Triton, 50 mM Tris-Cl, pH 7.4, 180 mM NaCl, 1 mM EDTA). Protein concentration of the samples was measured using the bicinchoninic acid (BCA) protein assay kit as described. Samples of concentrated conditioned medium and cell lysates were mixed with non-reducing electrophoresis loading buffer and subjected to electrophoresis under non-reducing conditions, which was carried out on a 10% SDS-PAGE co-polymerized with 2 mg/mL gelatin or casein (Sigma, St. Louis, Mo. USA). For zymographic analysis of pro-MMP-2 and activated MMP-2, the total 20 μg of culture medium were used for electrophoresis. Following electrophoresis, renaturation of the proteins was achieved by incubating the gels in 25 g/L Triton X-100 at room temperature for 2×10 min. Subsequently the gels were incubated in 50 mM Tris-HCl, pH 7.5 containing 0.2 M NaCl, 0.02% Brij35 and 10 mM CaCl2 at 37° C. for 18 h. After staining the gels with Coomassie Brilliant Blue R-250 and destaining, zones of proteolytic activities became visible as transparent bands in the stained gel. In order to obtain higher sensitivity, the gels were further destained in a solution of 1% Triton x-100 (1 to 2 h). This procedure increased the signal-to-noise ratio, allowing the visualization of faint gelatinase bands at 92, 125 and greater than 200 kDa. Zymograms were read using a Molecular Dynamics (Sunnyvale, Calif., USA) computing laser densitometer with Image Quant software.
Results shown in Tables 6A and 6B represent the quantitated data from zymography analysis of MMP-2 protein in HaCaT cells and qRT-PCR for MMP-1 in HDF cells. The concentrations used were 0, 0.01. 0.1, 1 μM (if not indicated otherwise) for pure compounds; and were 0, 1, 10, 40 μg/mL for crude extract (if not indicated otherwise). The cells were treated with the indicated compounds for 24 h before harvested for analysis of Pro-MMP-2 or activated MMP-2 in whole cell extract. Fifty micrograms of the cell extract samples were used for electrophoresis.

| Molecule | Collagen I in cell (collagen I; 0.01 μM) | Collagen I in cell (collagen I; 0.1 μM) | Collagen I in cell (collagen I; 1 μM) | ProMMP-2/MMP2 in medium (MMP-2; 0.01 μM) | ProMMP-2/MMP2 in medium (MMP-2; 0.1 μM) | ProMMP-2/MMP2 in medium (MMP-2; 1 μM) |
| --- | --- | --- | --- | --- | --- | --- |
| CC(=O)O[C@H]1[C@H](O[C@H]2CC[C@]34C[C@]35CC[C@]3(C)[C@@H]([C@@]6(C)CC[C@@H](C(C)(C)O)O6)[C@@H](O)C[C@@]3(C)[C@@H]5C[C@H](O[C@@H]3O[C@H](CO)[C@@H](O)[C@H](O)[C@H]3O)[C@H]4C2(C)C)OC[C@@H](O)[C@@H]1O [AS2, astragaloside II] | 0.86 | 1.14 | 1.87 | 0.89 | 0.89 | 0.67 |
| CC(C)(O)[C@@H]1CC[C@](C)([C@H]2[C@@H](O)C[C@@]3(C)[C@@H]4C[C@H](O)[C@H]5C(C)(C)[C@@H](O[C@@H]6OC[C@@H](O)[C@H](O)[C@H]6O[C@@H]6O[C@H](CO)[C@@H](O)[C@H](O)[C@H]6O)CC[C@@]56C[C@@]46CC[C@]23C)O1 [AS3, astragaloside III] |  |  |  | 0.76 | 0.57 | 0.81 |
| CC(C)(O)[C@@H]1CC[C@](C)([C@H]2[C@@H](O)C[C@@]3(C)[C@@H]4C[C@H](O[C@@H]5O[C@H](CO)[C@@H](O)[C@H](O)[C@H]5O)[C@H]5C(C)(C)[C@@H](O[C@@H]6OC[C@@H](O)[C@H](O)[C@H]6O[C@@H]6O[C@H](CO)[C@@H](O)[C@H](O)[C@H]6O)CC[C@@]56C[C@@]46CC[C@]23C)O1 [AS6, astragaloside VI] |  |  |  | 0.89 | 0.67 | 0.74 |
| CC(=O)O[C@H]1[C@H](O[C@H]2CC[C@]34C[C@]35CC[C@]3(C)[C@@H]([C@@]6(C)CC[C@@H](C(C)(C)O)O6)[C@@H](O)C[C@@]3(C)[C@@H]5C[C@H](O[C@@H]3O[C@H](CO)[C@@H](O)[C@H](O)[C@H]3O)[C@H]4C2(C)C)OC[C@@H](OC(C)=O)[C@@H]1O [isoAS1, isoastragaloside I] | 1.13 | 1.06 | 1.19 |  |  |  |
| CC(=O)O[C@@H]1[C@@H](O)[C@H](O[C@H]2CC[C@]34C[C@]35CC[C@]3(C)[C@@H]([C@@]6(C)CC[C@@H](C(C)(C)O)O6)[C@@H](O)C[C@@]3(C)[C@@H]5C[C@H](O[C@@H]3O[C@H](CO)[C@@H](O)[C@H](O)[C@H]3O)[C@H]4C2(C)C)OC[C@H]1O [isoAS2, isoastragaloside II] | 1.52 | 0.94 | 1.41 |  |  |  |
| astragaloside I [AS1] | 1.13 | 0.72 | 1.22 | 0.57 | 0.57 | 0.86 |
